These results are taken from paper PMC9532399, “The lysosomal transporter TAPL has a dual role as peptide translocator and phosphatidylserine floppase” (Nature Communications, 2022).

Common to all, as to format: biochemical
For experiment [1], the target named is T1, mouse TAPL ΔTMD0 (Mus musculus, UniProt Q9JJ59).
T1 construct: thrombin cleavage site (C); eGFP (C); 10XHis (C); made in house; host or cells: Trichoplusia ni High Five (Hi5) insect cells, baculovirus (pVL1393)
T1 sequence (Q9JJ59 143-762): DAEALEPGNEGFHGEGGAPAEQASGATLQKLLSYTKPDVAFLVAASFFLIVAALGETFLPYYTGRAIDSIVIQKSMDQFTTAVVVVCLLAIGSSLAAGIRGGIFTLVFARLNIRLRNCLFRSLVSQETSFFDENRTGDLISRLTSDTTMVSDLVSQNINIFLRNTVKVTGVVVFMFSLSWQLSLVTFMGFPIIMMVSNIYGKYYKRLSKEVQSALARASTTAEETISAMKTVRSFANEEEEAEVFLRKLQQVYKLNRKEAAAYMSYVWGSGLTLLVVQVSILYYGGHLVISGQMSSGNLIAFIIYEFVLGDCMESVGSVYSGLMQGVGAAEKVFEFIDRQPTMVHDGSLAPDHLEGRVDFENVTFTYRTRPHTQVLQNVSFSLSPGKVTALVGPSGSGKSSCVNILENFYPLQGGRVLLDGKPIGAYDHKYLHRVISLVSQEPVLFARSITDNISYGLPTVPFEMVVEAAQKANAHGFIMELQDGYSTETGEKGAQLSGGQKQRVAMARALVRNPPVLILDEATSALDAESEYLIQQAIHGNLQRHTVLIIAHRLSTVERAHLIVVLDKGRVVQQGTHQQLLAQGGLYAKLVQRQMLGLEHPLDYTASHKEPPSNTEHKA
Nature of the experiment: Dithionite-based flip-flop (floppase) assay of NBD*-labeled lipids, ΔTMD0 proteoliposomes. The settings on record: NBD*-labeled lipid; PE, PG, PC and cholesterol data not shown. How it is done:
All lipids used in reconstitution were purchased from Avanti Polar Lipids, Inc. (purity > 99%). The in vitro flip–flop assay was performed using NBD* dye-labeled proteoliposomes as described previously. Briefly, E. coli polar lipids and egg PC were mixed in a 1:1 molar ratio, and 0.5% (mol/mol) NBD*-lipid was added. The lipid mixture was then dried under nitrogen gas. The NBD*-lipids used were 18:1-06:0 NBD*-PS (1-oleoyl-2-{6-[(7-nitro-2-1,3-benzoxadiazol-4-yl)amino]hexanoyl}-sn-glycero-3-phosphoserine), 18:1-06:0 NBD*-PC (1-oleoyl-2-{6-[(7-nitro-2-1,3-benzoxadiazol-4-yl)amino]hexanoyl}-sn-glycero-3-phosphocholine), 18:1-06:0 NBD*-PG (1-oleoyl-2-{6-[(7-nitro-2-1,3-benzoxadiazol-4-yl)amino]hexanoyl}-sn-glycero-3-[phospho-rac-(1-glycerol)]), 18:1-06:0 NBD*-PE (1-oleoyl-2-{6-[(7-nitro-2-1,3-benzoxadiazol-4-yl)amino]hexanoyl}-sn-glycero-3-phosphoethanolamine), and 25-NBD*-Cholesterol (25-[N-[(7-nitro-2-1,3-benzoxadiazol-4-yl)methyl]amino]−27-norcholesterol). Thin lipid films were solubilized in 20 mM HEPES–NaOH pH 8.0, 200 mM NaCl and 5% (v/v) glycerol, incubated at RT for 30 min and subjected to 5 freeze–thaw cycles. After extrusion with a Mini-Extruder at 65 °C, final lipid concentrations were determined by phosphorus assays. Briefly, 10 μL of extruded lipid was added to 10 μL of 2% (w/v) ammonium molybdate and 300 μL of concentrated perchloric acid. The mixture was heated at 250 °C for 30 min, then cooled to RT and mixed with 1.5 mL of 0.4% (w/v) ammonium molybdate and 250 μL of 9% (w/v) L-ascorbic acid. It was again heated at 100 °C for 6 min and cooled to RT. Lipid concentrations were calculated from the absorbance at 820 nm using a standard curve prepared with NaH2PO4 solution. After accurately determining the lipid concentration, DM-purified protein and 5 mM lipid suspension (solubilized in 5 mM DM) were mixed 1:25 (w/w). After incubation at 4 °C for 1.5 h, DM detergent was removed with 75 mg Bio-beads SM-2 by periodic gentle shaking for 1 h at 4 °C (Supplementary Fig. 5a). The beads were replaced once, followed by an additional incubation at 4 °C for 2 h to completely remove detergent. The resulting proteoliposomes were collected by ultracentrifugation at 200,000×g for 1.5 h at 4 °C.
To measure the flip–flop activity, 10 μL of 2 mM NBD*-labeled proteoliposomes were added to 100 μL of reaction buffer (20 mM HEPES–NaOH pH 8.0, 200 mM NaCl, 5 mM ATP and 5% (v/v) glycerol) in the presence of 2 mM MgCl2 (or NaCl), and incubated at 37 °C for 1 h. The mixture was transferred to a 96-well plate and time-dependent fluorescence (λex/λem = 460/538 nm) was recorded every 30 s for 26 min using a fluorescence spectrophotometer (Gemini XPS). After the baseline fluorescence had stabilized, 10 mM sodium dithionite was added to quench the fluorescence of NBD*-lipid present in the outer leaflets of the liposomes. The initial rapid drop and subsequent slow decline in fluorescence intensity were monitored. When a new steady state was established, 1% (v/v) Triton X-100 was added to completely disrupt the liposomes. The net percentage of NBD*-lipid translocated across the lipid bilayer was calculated from the following equation[72]: the percentage of protected NBD*-lipid in the inner leaflet = [(FD−F0)/(FT−F0)]×100, and that of accessible NBD*-lipid in the outer leaflet = [(FT−FD)/(FT−F0)]×100, where FT is the total fluorescence of the sample before the addition of dithionite, FD is the fluorescence of the sample after quenching with dithionite, and F0 is any residual fluorescence of the sample after solubilization with Triton X-100. Fluorescence values (FT, FD, F0) were calculated as the averages of 5 points on the respective plateau lines. The ΔTMD0-mediated lipid floppase activity was determined by subtracting the percentage of NBD*-lipid fluorescence measured in the presence of Na^+/ATP from that measured in the presence of Mg^2+/ATP.

The target in experiment [2] is T1, mouse TAPL ΔTMD0. In words: Lipid-stimulated ATPase assay, DM-purified ΔTMD0. Conditions: lipid stimulation, 3 mM ATP. On the procedure:
(§1) The ATPase activities of proteins obtained after various purification procedures were determined by NADH-coupled spectrophotometric assays. 10 μg of DM-purified or nanodisc-reconstituted protein was added to 140 μL of reaction buffer containing 50 mM HEPES–KOH pH 8.0, 60 μg/mL pyruvate kinase (Roche), 16 μg/mL lactate dehydrogenase (Roche), 10 mM phosphoenolpyruvate (Roche), 0.3 mM NADH, 3 mM ATP, 10 mM MgCl2, and 0.17% (w/v) DM in the presence or absence of 250 μM peptide. For proteins reconstituted into nanodiscs, DM was not added to the reaction buffer. For lipid-stimulated ATPase assays, the thin film of lipids was hydrated in 100 μL of buffer containing 50 mM HEPES–KOH pH 8.0 and 10 mM MgCl2 to yield a 10 mM solution. After sonication of the lipid solution for 10 min to decrease its turbidity, the reaction was initiated by adding varying concentrations of lipids to the mixture. ATP hydrolysis activity was monitored at 37 °C for 3 min by measuring the rate of decline of NADH absorbance at 340 nm. To inhibit ATP hydrolysis, the reaction mixture was incubated with 3 mM AMP-PNP or 8 mM NaF/2 mM BeSO4 for 5 min at RT. The kinetic parameters of ATP hydrolysis were calculated by fitting the initial rates of ATP hydrolysis to the Michaelis–Menten equation using PRISM 4.0 (GraphPad software).

Experiment [3] addresses T1, mouse TAPL ΔTMD0. In words: NADH-coupled ATPase assay, DM-purified ΔTMD0. On the procedure:
as §1

For experiment [4], the target named is T1, mouse TAPL ΔTMD0. Nature of the experiment: Peptide transport assay, ΔTMD0 proteoliposomes. The settings on record: for reduction of peptide transport: 5-IAF-labeled peptide, ATP-dependent, relative to 9-mer; for Transport activity: peptide 10 mM (sic), + 3 mM ATP. How it is done:
Proteoliposomes for peptide transport assays were prepared according to the protocol of Zhao et al., with some modifications. Briefly, E. coli polar lipid extract dissolved in chloroform was dried under a gentle stream of nitrogen. The thin film of lipids was placed under a desiccator overnight to completely remove residual chloroform and then hydrated in 1X PBS buffer pH 7.4 (137 mM NaCl, 2.7 mM KCl, 8 mM Na2HPO4, and 2 mM KH2PO4) with 10 mM MgCl2 and 5% (v/v) glycerol. After water bath sonication at 22 °C for 5 min (Powersonic 610, KLEENTEK), the lipid solution was extruded using a Mini-Extruder equipped with a polycarbonate membrane filter (200 nm pore) (Avanti Polar Lipids, Inc.) to obtain unilamellar vesicles, which were destabilized with 0.36% (w/v) DM. The DM-purified protein and lipid suspension were mixed in a 1:50 (w/w) ratio. After incubation at 4 °C for 2 h, the mixture was treated with Bio-Beads SM-2 resin (60 and 120 mg, see above) at 4 °C for a total of 18 h to remove detergent. The proteoliposomes were collected by centrifugation at 200,000×g for 1.5 h at 4 °C and resuspended in the buffer described above.
The peptide transport activity of ΔTMD0 was measured as described previously. Briefly, 50 μL of ΔTMD0-loaded proteoliposomes (~0.6 μg protein) were added into 200 μL reaction buffer containing 1X PBS pH 7.4, 3 mM ATP, and 10 mM MgCl2 in the presence or absence of 10 μM 5-IAF-labeled peptides. To investigate transport activity, the mixture was incubated at 37 °C for 10 min. The reaction was terminated by incubating the mixture for 20 min on ice. Proteoliposomes were collected by centrifugation at 200,000×g for 30 min and then washed twice with 1X PBS. The proteoliposomes were completely disrupted by adding 10% (w/v) SDS solution (final concentration, 2%). The transported peptide was measured using a microplate reader (Gemini XPS) with excitation at 485 nm and emission at 520 nm.

Where [5] appears, read: 9-mer + ATP set at 100%, 37 °C 10 min, mean n=3.

Regarding `CCCCCCCC/C=C\CCCCCCCC(=O)OC[C@H](COP(=O)(O)OCC(O)CO)OC(=O)CCCCCNc1ccc([N+](=O)[O-])c2nonc12` (mixture of isomers) [NBD*-PG, 1-oleoyl-2-{6-[(7-nitro-2-1,3-benzoxadiazol-4-yl)amino]hexanoyl}-sn-glycero-3-[phospho-rac-(1-glycerol)]], the “ATP-dependent lipid transport by ΔTMD0” value at mouse TAPL ΔTMD0 [1] is on record as “very low”.
Turning to `CCCCCCCC/C=C\CCCCCCCC(=O)O[C@H](COC(=O)CCCCCCCCCCCCCCC)COP(=O)(O)OCC(O)CO` (mixture of isomers) [POPG, 1-palmitoyl-2-oleoyl-sn-glycero-3-phospho-(1’-rac-glycerol)], at mouse TAPL ΔTMD0 [2], the “maximal ATPase activity (turnover)” value was 155 min⁻¹. For the same compound, on mouse TAPL ΔTMD0 [2] (means ± SEM), the Km – broadly, the substrate concentration at which the rate is half of its maximum – turned out to be 105 ± 16 µM and the “maximal ATPase activity (Vmax)” value was 1147 ± 41 nmol/mg/min.
With `Nc1ncnc2c1ncn2[C@@H]1O[C@H](COP(=O)(O)OP(=O)(O)NP(=O)(O)O)[C@@H](O)[C@H]1O` [AMP-PNP], the “ATP hydrolysis in presence of ATP analogs” value on mouse TAPL ΔTMD0 [3] (in the presence of 9-mer peptide) is reported as “prevented ATP hydrolysis”.
For `Nc1ncnc2c1ncn2[C@@H]1O[C@H](COP(=O)(O)OP(=O)(O)OP(=O)(O)O)[C@@H](O)[C@H]1O` [ATP], on mouse TAPL ΔTMD0 [3] (basal ATPase activity, DM-purified ΔTMD0), the Vmax (usually the rate approached at saturating substrate) is reported as 394 ± 10 nmol/mg/min. The Km at mouse TAPL ΔTMD0 [3] (basal ATPase activity, DM-purified ΔTMD0, read-out: Km for ATP) was 497 ± 61 µM.
In the case of `CCCCCCCC/C=C\CCCCCCCC(=O)OC[C@H](COP(=O)([O-])OCC[N+](C)(C)C)OC(=O)CCCCCNc1ccc([N+](=O)[O-])c2nonc12` [NBD*-PC, 1-oleoyl-2-{6-[(7-nitro-2-1,3-benzoxadiazol-4-yl)amino]hexanoyl}-sn-glycero-3-phosphocholine], on mouse TAPL ΔTMD0 [1], the “ATP-dependent lipid transport by ΔTMD0” value is “very low”.
Still for that read-out and setting: with `CCCCCCCC/C=C\CCCCCCCC(=O)OC[C@H](COP(=O)(O)OCCN)OC(=O)CCCCCNc1ccc([N+](=O)[O-])c2nonc12` [NBD*-PE, 1-oleoyl-2-{6-[(7-nitro-2-1,3-benzoxadiazol-4-yl)amino]hexanoyl}-sn-glycero-3-phosphoethanolamine] the entry was “very low”; with `CC(CCC[C@@H](C)[C@@H]1CC[C@H]2[C@@H]3CC=C4C[C@@H](O)CC[C@]4(C)[C@H]3CC[C@@]21C)N(C)c1ccc([N+](=O)[O-])c2nonc12` (stereo partly shown) [NBD*-cholesterol, 25-[N-[(7-nitro-2-1,3-benzoxadiazol-4-yl)methyl]amino]−27-norcholesterol], “failed to detect ΔTMD0-mediated translocation”.
As to `CCCCCCCC/C=C\CCCCCCCC(=O)OC(COC(=O)CCCCCCCCCCCCCCC)COP(=O)([O-])OCC[N+](C)(C)C` (stereo not shown) [POPC, 1-palmitoyl-2-oleoyl-glycero-3-phosphocholine], on mouse TAPL ΔTMD0 [2], the “maximal ATPase activity (turnover)” value was 88 min⁻¹. Moreover, the “maximal ATPase activity (Vmax)” value at mouse TAPL ΔTMD0 [2] (means ± SEM) worked out at 649 ± 35 nmol/mg/min.
For “RRYQNSTELRRYQNSTC^5-IAFL [18-mer, 5-IAF-labeled 18-mer peptide]”, at mouse TAPL ΔTMD0 [4], the “reduction of peptide transport” value is given as 90%. In addition, the Transport activity worked out at 10.0006% on mouse TAPL ΔTMD0 [4] (setting [5]), 11.6836% on mouse TAPL ΔTMD0 [4] (replicate I), 10.1438% on mouse TAPL ΔTMD0 [4] (replicate II) and 8.174% at mouse TAPL ΔTMD0 [4] (replicate III).
The corresponding values for “RRYQNSTELRRYQNSTELNSTC^5-IAFL [23-mer, 5-IAF-labeled 23-mer peptide]” are 80%, 20.2607%, 20.4488%, 15.9535% and 24.3798%.
